Data reported in publication PMC4203866, “Identification of plant-derived natural products as potential inhibitors of the Mycobacterium tuberculosis proteasome” (BMC Complementary and Alternative Medicine, 2014).
Where a name gives a salt, the structure may show the parent alone. Where a SMILES comes first, the peptide text is derived from it. The star is where a group is joined. Cbz = O=C(OCc1ccccc1)*

target: T1, Mtb proteasome (Mycobacterium tuberculosis, UniProt P9WHT9); experiment: biochemical; details: not given
T1 construct: Proteasome activity of the supernatants was assessed; endogenous in cells; host or cells: Mycobacterium tuberculosis H37Ra (crude lysate supernatant)
T1 sequence (P9WHT9 58-291): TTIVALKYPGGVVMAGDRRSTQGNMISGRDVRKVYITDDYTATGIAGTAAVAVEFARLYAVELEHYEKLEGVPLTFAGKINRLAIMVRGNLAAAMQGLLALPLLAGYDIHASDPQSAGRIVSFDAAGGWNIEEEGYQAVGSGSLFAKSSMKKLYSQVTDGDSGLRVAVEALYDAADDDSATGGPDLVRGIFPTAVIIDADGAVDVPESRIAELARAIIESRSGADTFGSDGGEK
T1 sequence (P9WHU1 whole entry partner): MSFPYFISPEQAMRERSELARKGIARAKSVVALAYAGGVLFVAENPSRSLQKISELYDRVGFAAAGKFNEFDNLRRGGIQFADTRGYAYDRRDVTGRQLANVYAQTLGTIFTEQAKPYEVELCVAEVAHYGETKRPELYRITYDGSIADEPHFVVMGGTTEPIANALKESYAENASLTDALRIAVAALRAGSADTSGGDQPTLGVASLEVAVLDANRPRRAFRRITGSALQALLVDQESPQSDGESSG

Compound | IA: inhibitory activity of Mtb proteasome [%] | IC50 [µM]
COc1ccc([C@H]2OC[C@H]3[C@@H]2CO[C@H]3c2ccc(O[C@@H]3O[C@H](CO)[C@@H](O)[C@H](O)[C@H]3O)c(OC)c2)cc1OC [forsythin] | 20.02 | –
COc1c(O)cc2oc(-c3ccc(O)cc3)cc(=O)c2c1O [hispidulin] | – | 58.3
CC(C)C[C@@H](C=O)NC(=O)[C@H](CC(C)C)NC(=O)[C@H](CC(C)C)NC(=O)OCc1ccccc1 [MG132, reference compound] (Cbz-Leu-Leu-Leu-aldehyde) | – | 28
O=C(O)[C@H]1O[C@@H](Oc2cc3oc(-c4ccccc4)cc(=O)c3c(O)c2O)[C@H](O)[C@@H](O)[C@@H]1O [baicalin] | – | 83.5
COc1cc2c(c(OC)c1OC)-c1c(cc(OC)c(OC)c1OC)C[C@H](C)[C@H](C)C2 [deoxyschizandrin] | 23.86 | –
C=C1C(=O)O[C@@H]2C[C@@]3(C)CCC[C@H](C)C3=C[C@H]12 [alantolactone] | 32.12 | –
C/C=C(/C)C(=O)O[C@H]1[C@@H](OC(C)=O)c2c(ccc3ccc(=O)oc23)OC1(C)C [praeruptorin A] | 0.00 | –
O=c1oc2c(O)c(O)cc3c(=O)oc4c(O)c(O)cc1c4c23 [gallogen] | 62.50 | –

same assay, conditions: 0.5 h, read-out: IA: inhibitory activity of Mtb proteasome

Compound | inhibition at 200 µM [%]
COc1c(O)cc2oc(-c3ccc(O)cc3)cc(=O)c2c1O [hispidulin] | > 65
CC(=O)O[C@H]1C(=O)[C@@]2(C)[C@H]([C@H](OC(=O)c3ccccc3)[C@]3(O)C[C@H](OC(=O)[C@H](O)[C@@H](NC(=O)c4ccccc4)c4ccccc4)C(C)=C1C3(C)C)[C@]1(OC(C)=O)CO[C@@H]1C[C@@H]2O [paclitaxel, reference compound] | 0
CC1(C)O[C@H]2CC(=O)OC[C@]23[C@H]2CC[C@@]4(C)[C@H](c5ccoc5)OC(=O)[C@H]5O[C@]54[C@]2(C)C(=O)C[C@@H]13 [limonin] | 1.61
CC[C@@]1(O)C(=O)OCc2c1cc1n(c2=O)Cc2cc3ccccc3nc2-1 [camptothecin] | 0
O=c1c(O)c(-c2ccc(O)c(O)c2)oc2cc(O)cc(O)c12 [quercetin] | > 65
O=c1ccc2ccc(O)c(O)c2o1 [daphnetin] | 0
O=c1c(-c2ccc(O)cc2)coc2cc(O)cc(O)c12 [genistein] | 45.7
O=C(/C=C/c1ccc(O)c(O)c1)O[C@@H]1C[C@](O)(C(=O)O)C[C@@H](O)[C@H]1O [chlorogenic acid] | 0
COc1ccc(-c2cc(=O)c3c(O)cc(O)cc3o2)cc1O [diosmetin] | 0
O=C(O)[C@H]1O[C@@H](Oc2cc3oc(-c4ccccc4)cc(=O)c3c(O)c2O)[C@H](O)[C@@H](O)[C@@H]1O [baicalin] | > 65
O=C1C[C@@H]2OCC=C3CN4CC[C@]56c7ccccc7N1[C@H]5[C@H]2[C@H]3C[C@H]46 [strychnine] | 0
C[C@@]12C[C@@]3(O)O[C@@H](O1)[C@]1(COC(=O)c4ccccc4)[C@H]3C[C@@]12O[C@@H]1O[C@H](CO)[C@@H](O)[C@H](O)[C@H]1O [paeoniflorin] | 3.05
O=c1c(-c2ccc(O)cc2)coc2cc(O)ccc12 [daidzein] | 0
OC[C@H]1O[C@@H](Oc2cc(O)cc(/C=C/c3ccc(O)cc3)c2)[C@H](O)[C@@H](O)[C@@H]1O [polydatin] | 0
O[C@H]1[C@H]2c3cc4c(cc3CN3CCC(=C[C@@H]1O)[C@H]23)OCO4 [lycorine hydrochloride] | 0
COc1c(O)cc(O)c2c(=O)cc(-c3ccccc3)oc12 [wogonin] | 54
O=C1CCC[C@@H]2[C@H]3CCCN4CCC[C@H](CN12)[C@@H]34 [sophoridine] | 11.8
C=C1C(=O)O[C@@H]2/C=C(\C)CC/C=C(\C)CC[C@@H]12 [costunolide] | 41.8
N#C[C@H](O[C@@H]1O[C@H](CO[C@@H]2O[C@H](CO)[C@@H](O)[C@H](O)[C@H]2O)[C@@H](O)[C@H](O)[C@H]1O)c1ccccc1 [amygdalin] | 1.87

same assay, conditions: read-out: IA: inhibitory activity of Mtb proteasome

Compound | inhibition at 100 µM [%]
CC(C)C[C@@H](C=O)NC(=O)[C@H](CC(C)C)NC(=O)[C@H](CC(C)C)NC(=O)OCc1ccccc1 [MG132, reference compound] (Cbz-Leu-Leu-Leu-aldehyde) | 79.7
